{"source": "ChEMBL document CHEMBL5537193", "about": "“Multitargeting HDAC Inhibitors Containing a RAS/RAF Protein Interfering Unit” (J Med Chem, 2024)", "key": {"[1]": {"system": "HT-29", "experiment": "Effect on Histone H3 expression in tumor of BALB/c mouse xenografted with human HT-29 cells at 7.5 to 15 mg/kg, ip administered once every 2 days for 12 times and measured after 24 days by Western blot analysis", "assay_type": "functional, organism-based", "settings": "Neoplasm, dose 7.5-15 mg/kg, time 24.0 day"}, "[2]": {"experiment": "AUC (0 to t) in Sprague-Dawley rat at 15 mg/kg, ip measured after 24 hrs by LC-MS/MS analysis", "assay_type": "ADME, organism-based", "settings": "in vivo"}, "[3]": {"biological_target": "T1, Serine/threonine-protein kinase PLK1 (Homo sapiens, UniProt P53350)", "T1 sequence (P53350 whole entry)": "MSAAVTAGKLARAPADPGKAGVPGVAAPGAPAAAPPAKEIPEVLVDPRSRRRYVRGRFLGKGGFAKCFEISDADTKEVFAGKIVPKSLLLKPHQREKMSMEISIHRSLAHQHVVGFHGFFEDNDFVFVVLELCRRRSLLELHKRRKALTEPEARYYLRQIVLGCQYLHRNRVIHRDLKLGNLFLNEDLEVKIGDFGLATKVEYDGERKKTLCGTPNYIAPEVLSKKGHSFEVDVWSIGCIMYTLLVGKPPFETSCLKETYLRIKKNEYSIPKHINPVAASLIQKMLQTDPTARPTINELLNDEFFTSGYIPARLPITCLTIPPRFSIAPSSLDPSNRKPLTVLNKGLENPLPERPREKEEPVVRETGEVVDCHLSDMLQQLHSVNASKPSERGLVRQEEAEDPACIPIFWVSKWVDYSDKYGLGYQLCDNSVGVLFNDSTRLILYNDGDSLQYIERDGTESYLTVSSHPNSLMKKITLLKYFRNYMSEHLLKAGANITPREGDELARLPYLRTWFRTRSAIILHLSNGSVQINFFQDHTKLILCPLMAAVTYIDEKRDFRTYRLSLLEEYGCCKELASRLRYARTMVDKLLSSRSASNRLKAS", "experiment": "Inhibition of PLK1 (unknown origin) at 10 uM relative to control"}, "[4]": {"system": "MCF7", "experiment": "cells", "settings": "Homo sapiens, MCF7, 72 h", "description": "Cytotoxicity against human MCF7 cells assessed as inhibition of cell growth incubated for 72 hrs by MTT assay"}, "[5]": {"experiment": "Metabolic stability in human liver microsomes assessed as intrinsic clearance at 1 uM measured upto 40 mins by LC-MS/MS analysis", "assay_type": "ADME, Microsome", "settings": "read-out: CLH"}, "[6]": {"system": "HT-29", "experiment": "Induction of apoptosis in human HT-29 cells incubated for 24 hrs by flow cytometric analysis", "assay_type": "functional, cell-based", "settings": "dose 1-4 µM"}, "[7]": {"experiment": "Cmax in Sprague-Dawley rat at 15 mg/kg, ip measured after 24 hrs by LC-MS/MS analysis", "assay_type": "ADME, organism-based", "settings": "in vivo"}, "[8]": {"system": "A549", "experiment": "cells", "settings": "Homo sapiens, A549, 72 h", "description": "Cytotoxicity against human A549 cells assessed as inhibition of cell growth incubated for 72 hrs by MTT assay"}, "[9]": {"system": "HT-29", "experiment": "Cell cycle arrest in human HT-29 cells assessed as accumulation of cells at G2-M phase at 2 uM incubated for 24 hrs by PI/RNase staining based flow cytometric analysis", "assay_type": "functional"}, "[10]": {"experiment": "Toxicity in BALB/c nude mouse xenografted with human HT-29 cells assessed as change in kidney histopathology at 10 to 15 mg/kg, ip administered once daily for 24 days by H&E staining based analysis", "assay_type": "organism-based", "settings": "in vivo, 576 h, dose 10-15 mg/kg, time 24 day"}, "[11]": {"system": "PANC-1", "experiment": "Effect on alpha-tubulin expression in human PANC-1 cells at 2 uM incubated for 24 hrs by Western blot analysis", "assay_type": "functional, cell-based"}, "[12]": {"system": "HT-29", "experiment": "Inhibition of MAPK signaling pathway in human HT-29 cells assessed as inhibition of MEK phosphorylation at 2 uM incubated for 24 hrs by Western blot analysis", "assay_type": "cell-based"}, "[13]": {"system": "Mus musculus", "experiment": "In vivo inhibition of MAPK signaling pathway in BALB/c mouse xenografted with human HT-29 cells assessed as inhibition of c-RAF phosphorylation at Ser338 residue administered intraperitoneally once every 2 days for 12 times and measured after 24 days by Western blot analysis", "assay_type": "functional", "settings": "dose 7.5-15 mg/kg, route ip, time 24.0 day"}, "[14]": {"experiment": "Tmax in Sprague-Dawley rat at 15 mg/kg, ip measured after 24 hrs by LC-MS/MS analysis", "assay_type": "ADME, organism-based", "settings": "in vivo"}, "[15]": {"system": "K562", "experiment": "cells", "settings": "Homo sapiens, K562, 72 h", "description": "Cytotoxicity against human K562 cells assessed as inhibition of cell growth incubated for 72 hrs by MTT assay"}, "[16]": {"experiment": "Toxicity in BALB/c nude mouse xenografted with human HT-29 cells assessed as change in spleen histopathology at 10 to 15 mg/kg, ip administered once daily for 24 days by H&E staining based analysis", "assay_type": "organism-based", "settings": "in vivo, 576 h, dose 10-15 mg/kg, time 24 day"}, "[17]": {"system": "HT-29", "experiment": "Effect on MEK expression in tumor of BALB/c mouse xenografted with human HT-29 cells at 7.5 to 15 mg/kg, ip administered once every 2 days for 12 times and measured after 24 days by Western blot analysis", "assay_type": "functional, organism-based", "settings": "Neoplasm, dose 7.5-15 mg/kg, time 24.0 day"}, "[18]": {"system": "HT-29", "experiment": "Effect on MEK protein expression in human HT-29 cells at 2 uM incubated for 24 hrs by Western blot analysis", "assay_type": "functional, cell-based"}, "[19]": {"system": "PANC-1", "experiment": "Inhibition of MAPK signaling pathway in human PANC-1 cells assessed as inhibition of ERK1/2 phosphorylation at 2 uM incubated for 24 hrs by Western blot analysis", "assay_type": "cell-based"}, "[20]": {"experiment": "Metabolic stability in rat liver microsomes assessed as intrinsic clearance at 1 uM measured upto 40 mins by LC-MS/MS analysis", "assay_type": "ADME, Microsome", "settings": "read-out: CLH"}, "[21]": {"system": "PANC-1", "experiment": "Induction of apoptosis in human PANC-1 cells assessed as apoptotic cells at 2 uM incubated for 24 hrs by flow cytometric analysis relative to control", "assay_type": "functional"}, "[22]": {"system": "HT-29", "experiment": "Antitumor activity against human HT-29 cells xenografted in BALB/c nude mouse assessed as tumor growth inhibition at 15 mg/kg, ip administered once a day for 24 days relative to control", "assay_type": "functional", "settings": "HT-29, 576 h, time 24 day, read-out: TGI"}, "[23]": {"system": "HT-29", "experiment": "Antitumor activity against human HT-29 xenografted in BALB/c nude mouse assessed as tumor growth inhibition at 7.5 mg/kg, ip administered once every 2 days for 12 times for 24 days relative to control", "assay_type": "functional", "settings": "HT-29, 576 h, time 24 day, read-out: TGI"}, "[24]": {"experiment": "Elimination rate constant in Sprague-Dawley rat at 15 mg/kg, ip measured after 24 hrs by LC-MS/MS analysis", "assay_type": "ADME, organism-based", "settings": "in vivo"}, "[25]": {"system": "NCI-H1975", "experiment": "cells", "settings": "Homo sapiens, NCI-H1975, 72 h", "description": "Cytotoxicity against human NCI-H1975 cells assessed as inhibition of cell growth incubated for 72 hrs by MTT assay"}, "[26]": {"system": "Mus musculus", "experiment": "In vivo inhibition of HDAC3 in BALB/c mouse xenografted with human HT-29 cells assessed as induction of alpha-tubulin acetylation administered intraperitoneally once every 2 days for 12 times and measured after 24 days by Western blot analysis", "assay_type": "functional", "settings": "dose 7.5-15 mg/kg, route ip, time 24.0 day"}, "[27]": {"system": "L02", "experiment": "cells", "settings": "Homo sapiens, L02, 72 h", "description": "Cytotoxicity against human L02 cells assessed as inhibition of cell growth incubated for 72 hrs by MTT assay"}, "[28]": {"experiment": "Toxicity in BALB/c nude mouse xenografted with human HT-29 cells assessed as change in liver histopathology at 10 to 15 mg/kg, ip administered once daily for 24 days by H&E staining based analysis", "assay_type": "organism-based", "settings": "in vivo, 576 h, dose 10-15 mg/kg, time 24 day"}, "[29]": {"system": "HT-29", "experiment": "Effect on alpha-tubulin expression in human HT-29 cells at 2 uM incubated for 24 hrs by Western blot analysis", "assay_type": "functional, cell-based"}, "[30]": {"biological_target": "T1, Serine/threonine-protein kinase PLK1", "experiment": "Inhibition of PLK1 (unknown origin)"}, "[31]": {"system": "HT-29", "experiment": "cells", "settings": "Homo sapiens, HT-29, 72 h", "description": "Cytotoxicity against human HT-29 cells assessed as inhibition of cell growth incubated for 72 hrs by MTT assay"}, "[32]": {"system": "HT-29", "experiment": "Effect on ERK1/2 expression in tumor of BALB/c mouse xenografted with human HT-29 cells at 7.5 to 15 mg/kg, ip administered once every 2 days for 12 times and measured after 24 days by Western blot analysis", "assay_type": "functional, organism-based", "settings": "Neoplasm, dose 7.5-15 mg/kg, time 24.0 day"}, "[33]": {"system": "SGC-7901", "experiment": "cells", "settings": "Homo sapiens, SGC-7901, 72 h", "description": "Cytotoxicity against human SGC-7901 cells assessed as inhibition of cell growth incubated for 72 hrs by MTT assay"}, "[34]": {"experiment": "Toxicity in BALB/c nude mouse xenografted with human HT-29 cells assessed as change in heart histopathology at 10 to 15 mg/kg, ip administered once daily for 24 days by H&E staining based analysis", "assay_type": "organism-based", "settings": "in vivo, 576 h, dose 10-15 mg/kg, time 24 day"}, "[35]": {"system": "A-431", "experiment": "cells", "settings": "Homo sapiens, A-431, 72 h", "description": "Cytotoxicity against human A-431 cells assessed as inhibition of cell growth incubated for 72 hrs by MTT assay"}, "[36]": {"biological_target": "Histone deacetylase 9 (Homo sapiens, UniProt Q9UKV0)", "sequence (Q9UKV0 whole entry)": "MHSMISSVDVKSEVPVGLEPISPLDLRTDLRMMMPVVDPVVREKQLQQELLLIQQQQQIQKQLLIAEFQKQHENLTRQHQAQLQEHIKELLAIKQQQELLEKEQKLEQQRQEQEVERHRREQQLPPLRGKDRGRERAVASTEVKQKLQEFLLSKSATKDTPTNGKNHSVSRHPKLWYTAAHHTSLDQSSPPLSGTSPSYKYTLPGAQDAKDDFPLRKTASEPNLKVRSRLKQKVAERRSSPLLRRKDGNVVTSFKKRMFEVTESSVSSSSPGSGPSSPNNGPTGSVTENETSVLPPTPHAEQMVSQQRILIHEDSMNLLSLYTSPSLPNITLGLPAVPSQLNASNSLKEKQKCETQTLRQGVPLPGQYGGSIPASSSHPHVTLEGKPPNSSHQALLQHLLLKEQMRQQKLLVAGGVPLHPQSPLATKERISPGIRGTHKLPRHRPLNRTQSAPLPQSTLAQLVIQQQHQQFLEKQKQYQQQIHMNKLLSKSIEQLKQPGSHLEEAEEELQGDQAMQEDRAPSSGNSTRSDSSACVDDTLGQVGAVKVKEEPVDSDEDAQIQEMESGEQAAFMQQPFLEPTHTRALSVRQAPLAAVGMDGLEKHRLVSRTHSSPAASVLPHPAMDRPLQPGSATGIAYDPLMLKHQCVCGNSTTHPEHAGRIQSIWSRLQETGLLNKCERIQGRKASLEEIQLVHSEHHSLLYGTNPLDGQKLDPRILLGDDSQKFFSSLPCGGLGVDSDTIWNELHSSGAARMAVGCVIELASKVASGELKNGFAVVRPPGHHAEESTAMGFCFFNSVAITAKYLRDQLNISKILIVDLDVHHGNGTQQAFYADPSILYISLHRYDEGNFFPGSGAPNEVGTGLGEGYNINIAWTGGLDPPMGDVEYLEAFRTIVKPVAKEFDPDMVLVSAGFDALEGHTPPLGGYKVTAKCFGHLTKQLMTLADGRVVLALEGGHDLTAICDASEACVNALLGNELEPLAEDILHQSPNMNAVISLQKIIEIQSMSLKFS", "experiment": "Inhibition of HDAC9 (unknown origin)"}, "[37]": {"system": "PANC-1", "experiment": "Inhibition of MAPK signaling pathway in human PANC-1 cells assessed as inhibition of C-RAF phosphorylation at Ser338 residue at 2 uM incubated for 24 hrs by Western blot analysis", "assay_type": "cell-based"}, "[38]": {"experiment": "Toxicity in BALB/c nude mouse xenografted with human HT-29 cells assessed as change in body weight at 7.5 to 15 mg/kg, ip administered once every 2 days for 12 times for 24 days", "assay_type": "organism-based", "settings": "in vivo, 576 h, dose 7.5-15 mg/kg, time 24 day"}}, "note": "The source made the active and inactive calls. No cut-off for these calls is given here.", "data": [{"smiles": "COc1cc(OC)c(/C=C/S(=O)(=O)Cc2ccc(OC)c(NCC(=O)NO)c2)c(OC)c1", "values": [{"measurement": "Activity", "setting": "[1]", "result": "inactive"}, {"measurement": "AUC(0-t) at 24 h", "setting": "[2]", "result": 5190, "unit": "ng·h/mL"}, {"measurement": "inhibition", "setting": "[3]", "result": 100, "unit": "%"}, {"measurement": "IC50", "setting": "[4]", "result": 240, "unit": "nM"}, {"measurement": "CLint scaled at 1 µM", "setting": "[5]", "result": 14, "unit": "mL/min/kg"}, {"measurement": "Activity", "setting": "[6]", "result": "Dose-Dependent Effect"}, {"measurement": "Cmax", "setting": "[7]", "result": 2800, "unit": "ng/mL"}, {"measurement": "IC50", "setting": "[8]", "result": 90, "unit": "nM"}, {"measurement": "Activity", "setting": "[9]", "result": "Active"}, {"measurement": "Activity", "setting": "[10]", "result": "Non-Toxic"}, {"measurement": "Activity", "setting": "[11]", "result": "inactive"}, {"measurement": "inhibition", "setting": "[12]", "result": "Active"}, {"measurement": "inhibition", "setting": "[13]", "result": "Dose-Dependent Effect"}, {"measurement": "Tmax", "setting": "[14]", "result": 30, "unit": "min"}, {"measurement": "IC50", "setting": "[15]", "result": 20, "unit": "nM"}, {"measurement": "Activity", "setting": "[16]", "result": "Non-Toxic"}, {"measurement": "Activity", "setting": "[17]", "result": "inactive"}, {"measurement": "Activity", "setting": "[18]", "result": "inactive"}, {"measurement": "inhibition", "setting": "[19]", "result": "Active"}, {"measurement": "CLint scaled at 1 µM", "setting": "[20]", "result": 450, "unit": "mL/min/kg"}, {"measurement": "Activity", "setting": "[21]", "result": 57.4, "unit": "%"}, {"measurement": "inhibition in vivo at 15 mg/kg", "setting": "[22]", "result": 86.7, "unit": "%"}, {"measurement": "inhibition in vivo at 7.5 mg/kg", "setting": "[23]", "result": 64.3, "unit": "%"}, {"measurement": "k el at 24 h", "setting": "[24]", "result": 0.000252, "unit": "s⁻¹"}, {"measurement": "IC50", "setting": "[25]", "result": 50, "unit": "nM"}, {"measurement": "inhibition", "setting": "[26]", "result": "Dose-Dependent Effect"}, {"measurement": "IC50", "setting": "[27]", "result": "> 40000", "unit": "nM"}, {"measurement": "Activity", "setting": "[28]", "result": "Non-Toxic"}, {"measurement": "Activity", "setting": "[29]", "result": "inactive"}, {"measurement": "IC50", "setting": "[30]", "result": 17.8, "unit": "nM"}, {"measurement": "inhibition", "setting": "[30]", "result": "Dose-Dependent Effect"}, {"measurement": "IC50", "setting": "[31]", "result": 40, "unit": "nM"}, {"measurement": "Activity", "setting": "[32]", "result": "inactive"}, {"measurement": "IC50", "setting": "[33]", "result": 170, "unit": "nM"}, {"measurement": "Activity", "setting": "[34]", "result": "Non-Toxic"}, {"measurement": "IC50", "setting": "[35]", "result": 550, "unit": "nM"}, {"measurement": "IC50", "setting": "[36]", "result": 83.7, "unit": "nM"}, {"measurement": "inhibition", "setting": "[37]", "result": "Active"}, {"measurement": "Activity", "setting": "[38]", "result": "Non-Toxic"}]}]}
